Assay results from article PMC8113213, “Physiologically based kinetic modelling based prediction of in vivo rat and human acetylcholinesterase (AChE) inhibition upon exposure to diazinon” (Archives of Toxicology, 2021).
Like-named read-outs stand apart in the source and are kept apart here.

Experiments:
[1] = test system: CYP450; experiment: in vitro; assay type: in vitro ADME, human; conditions: for Km: human
Experimental: The in vitro incubations for investigating CYP450-mediated biotransformation of DZN were performed using rat and human liver microsomes based on the method described by Sams et al. ([2004]) and Smith et al. ([2011]) with some modifications. Preliminary studies were carried out to optimize both incubation time and microsomal protein concentration, to define conditions at which metabolism was linear with respect to time and the amount of microsomal protein (data not shown) to be used for further kinetic studies. The final incubations contained 50 mM Tris–HCl (pH 7.4), 5 mM MgCl2, 1 mM EDTA (as an A-esterase PON1 inhibitor) (Bizoń and Milnerowicz [2018]), 50 µM iso-OMPA (as a B-esterases inhibitor) (Lane et al. [2006]), 1 mM NADPH, and DZN at final concentrations of 1, 2.5, 5, 10, 25, 50, 100 and 250 µM (added from 100 times concentrated stock solutions in methanol). […] Addition of esterase inhibitors EDTA and iso-OMPA has been commonly applied when studying CYP450-mediated conversion of organophosphate (OP) pesticides in liver microsomal incubations for determining kinetic parameters for their CYP450-mediated pathways (Buratti et al. [2005]; Dadson et al. [2013]; Ellison et al. [2012]; Foxenberg et al. [2007]; Poet et al. [2003]; Smith et al. [2011]). Based on previous studies, CYP450-mediated activities are not adversely affected by the addition of these inhibitors (1 mM EDTA and 50 µM iso-OMPA) to the microsomal incubations (Buratti et al. [2003]; Rasmussen [2012]). After 1 min preincubation in a 37 °C water bath, 2.5 µl of human or rat liver microsomes (final concentration 0.25 mg microsomal protein/ml) were added to initiate the reaction. The total incubation mixture was 200 µl. Control incubations were carried out by replacing NADPH with buffer. The reaction was terminated after 2.5 min by adding 200 µl ice-cold ACN. After the incubation, samples were centrifuged at 16000 g (4℃) for 5 min, and supernatants of rat samples were further diluted 2 × in a mixture of ACN and 50 mM Tris–HCl (pH 7.4) (ratio 1:1, v/v). At the end, both diluted rat sample supernatants and undiluted human sample supernatants were analysed by LC–MS/MS for quantification of metabolite formation.
The chromatographic separations were conducted on a Kinetex® 1.7 µm Phenyl-Hexyl 100 Å LC column (100 × 2.1 mm). The injection volume was 1 µl at a flow rate of 0.3 ml/min. The temperature of the column was kept at 40℃. The mobile phase A consisted of ultrapure water with 0.1% (v/v) formic acid, and mobile phase B consisted of acetonitrile (ACN) with 0.1% (v/v) formic acid. […] The instrument was used in positive mode with multiple reaction monitoring (MRM). The optimized acquisition parameters for DZN, DZO and the metabolite IMHP are listed in Supplementary data I. […]

[2] = test system: RBC AChE; experiment: TEF-coded PBK model-based reverse dosimetry, predicted in vivo RBC AChE inhibition, human
Excerpt: The PBK model for DZN was developed based on the model from Poet et al. ([2004]) with some modifications for both rat and human. The model contains a submodel for the metabolite DZO and was defined to include compartments for rapidly perfused tissue, slowly perfused tissue, liver, fat and blood for both the parent compound DZN and its metabolite DZO. The model also contains a compartment to describe the urinary elimination of the metabolites IMHP and DAP (sum of DEP and DETP). In the currently developed model, oral exposure was included since we aimed at defining a POD for risk assessment of exposure via food and drinking water, and intravenous (IV) exposure was included for model evaluation. The fractional absorption (fa) was set equal to literature reported values, being 0.8 in rat (Poet et al. [2004]) and 0.66 in human (Garfitt et al. [2002]) and applied to the overall dose. […]
The physiological parameters for rat and human were obtained from Brown et al. ([1997]) as well as Gearhart et al. ([1990]), and are summarised in Table 1. […] The Km values determined in vitro were assumed to be equal to in vivo Km values. […]

Question: What does the source list for `CCOP(=S)(OCC)Oc1cc(C)nc(C(C)C)n1` [DZN, O,O-diethyl O-2-isopropyl-6-methylpyrimidin-4-yl phosphorothioate]?
Answer: Vmax DZN to DZO ([1]; human liver microsomes): 0.187 nmol/min/mg microsomal protein; Vmax DZN to IMHP ([1]; human liver microsomes): 0.665 nmol/min/mg microsomal protein; Km ([1]; pH 7.4, Km DZN to DZO, human liver microsomes): 59.6 µM; Km ([1]; pH 7.4, human liver microsomes, read-out: Km DZN to IMHP): 16.3 µM; predicted BMDL10 for human lower than that for rat [2]: 6 fold
